The source made the active and inactive calls. The rule behind the calls is not given here.
Assays:
Ca-Ski [1] = assay: Cell cycle arrest in human CaSki cells assessed as accumulation at S phase after 8 hrs by flow cytometry; assay type: functional
Ca-Ski [2] = assay: Effect on Bcl-Xl protein expression in human CaSki cells at 1 mM by Western blot; assay type: functional, cell-based
HeLa [3] = assay: Increase in p53 protein level in human HeLa cells at 1 mM after 24 hrs by Western blot; assay type: functional, cell-based
HeLa [4] = assay: Induction of apoptosis in human HeLa cells assessed as proteolytic activation of caspase 9 at 1 mM by SDS-PAGE; assay type: functional, cell-based
HeLa [5] = assay: Induction of apoptosis in human HeLa cells assessed as caspase 9 activation by fluorogenic substrate based assay after 48 hrs; assay type: functional, cell-based
HeLa [6] = assay: Cell cycle arrest in human HeLa cells assessed as accumulation at S phase after 48 hrs by flow cytometry; assay type: functional
HeLa [7] = assay: Cell cycle arrest in human HeLa cells assessed as accumulation at G0/G1 phase after 24 hrs by flow cytometry; assay type: functional
HeLa [8] = assay: Cell cycle arrest in human HeLa cells assessed as accumulation at G2/M phase after 8 hrs by flow cytometry; assay type: functional
Ca-Ski [9] = assay: Cell cycle arrest in human CaSki cells assessed as accumulation at G0/G1 phase after 24 hrs by flow cytometry; assay type: functional
HeLa [10] = assay: Increase in Bax protein expression in human HeLa cells at 1 mM by Western blot; assay type: functional, cell-based
Ca-Ski [11] = assay: Induction of apoptosis in human CaSki cells assessed as chromatin condensation at 1 mM after 48 hrs by TUNEL/DAPI double staining; assay type: functional, cell-based
Ca-Ski [12] = assay: Increase in p53 protein level in human CaSki cells at 1 mM up to 48 hrs by Western blot; assay type: functional, cell-based
HeLa [13] = assay: Induction of apoptosis in human HeLa cells at 1 mM after 8 hrs by TUNEL/DAPI double staining; assay type: functional
HeLa [14] = assay: Cell cycle arrest in human HeLa cells assessed as accumulation at S phase after 8 hrs by flow cytometry; assay type: functional
HeLa [15] = assay: Cell cycle arrest in human HeLa cells assessed as accumulation at G0/G1 phase after 8 hrs by flow cytometry; assay type: functional
Ca-Ski [16] = assay: Cell cycle arrest in human CaSki cells assessed as accumulation at S phase after 48 hrs by flow cytometry; assay type: functional
Ca-Ski [17] = assay: Decrease in cyclin A protein expression in human CaSki cells at 1 mM by Western blot; assay type: functional, cell-based
Ca-Ski [18] = assay: Cell cycle arrest in human CaSki cells assessed as accumulation at G0/G1 phase after 8 hrs by flow cytometry; assay type: functional
HeLa [19] = assay: Cell cycle arrest in human HeLa cells assessed as accumulation at S phase after 24 hrs by flow cytometry; assay type: functional
Ca-Ski [20] = assay: Induction of apoptosis in human CaSki cells assessed as caspase 3 activation by fluorogenic substrate based assay after 24 hrs; assay type: functional, cell-based
HeLa [21] = assay: Cell cycle arrest in human HeLa cells assessed as accumulation at G0/G1 phase after 48 hrs by flow cytometry; assay type: functional
HeLa [22] = assay: Induction of apoptosis in human HeLa cells at 1 mM after 48 hrs by TUNEL/DAPI double staining; assay type: functional
Ca-Ski [23] = assay: Cell cycle arrest in human CaSki cells assessed as accumulation at G0/G1 phase after 48 hrs by flow cytometry; assay type: functional
HeLa [24] = assay: Induction of apoptosis in human HeLa cells assessed as nuclear DNA fragmentation at 1 mM after 48 hrs by TUNEL/DAPI double staining; assay type: functional, cell-based
Ca-Ski [25] = assay: Cell cycle arrest in human CaSki cells assessed as accumulation at G2/M phase after 48 hrs by flow cytometry; assay type: functional
Ca-Ski [26] = assay: Decrease in CDK1 protein expression in human CaSki cells at 1 mM by Western blot; assay type: functional, cell-based
Ca-Ski [27] = assay: Induction of apoptosis in human CaSki cells assessed as proteolytic activation of caspase 3 at 1 mM by SDS-PAGE; assay type: functional, cell-based
HeLa [28] = assay: Induction of apoptosis in human HeLa cells assessed as proteolytic activation of caspase 3 at 1 mM by SDS-PAGE; assay type: functional, cell-based
Ca-Ski [29] = assay: Decrease in CDK2 protein expression in human CaSki cells at 1 mM by Western blot; assay type: functional, cell-based
HeLa [30] = assay: Cell cycle arrest in human HeLa cells assessed as accumulation at G2/M phase after 24 hrs by flow cytometry; assay type: functional
HeLa [31] = assay: Cell cycle arrest in human HeLa cells assessed as accumulation at G2/M phase after 48 hrs by flow cytometry; assay type: functional
Ca-Ski [32] = assay: Induction of apoptosis in human CaSki cells assessed as proteolytic activation of caspase 9 at 1 mM by SDS-PAGE; assay type: functional, cell-based
Ca-Ski [33] = assay: Induction of apoptosis in human CaSki cells at 1 mM after 24 hrs by TUNEL/DAPI double staining; assay type: functional
HeLa [34] = assay: Induction of apoptosis in human HeLa cells at 1 mM after 24 hrs by TUNEL/DAPI double staining; assay type: functional
Ca-Ski [35] = assay: Cell cycle arrest in human CaSki cells assessed as accumulation at G2/M phase after 8 hrs by flow cytometry; assay type: functional
Ca-Ski [36] = assay: Induction of apoptosis in human CaSki cells assessed as nuclear DNA fragmentation at 1 mM after 48 hrs by TUNEL/DAPI double staining; assay type: functional, cell-based
Ca-Ski [37] = assay: Cell cycle arrest in human CaSki cells assessed as accumulation at G2/M phase after 24 hrs by flow cytometry; assay type: functional
HeLa [38] = assay: Effect on Bcl-Xl protein expression in human HeLa cells at 1 mM by Western blot; assay type: functional, cell-based
HeLa [39] = assay: Decrease in cyclin B protein expression in human HeLa cells at 1 mM by Western blot; assay type: functional, cell-based
Ca-Ski [40] = assay: Decrease in Bcl2 protein expression in human CaSki cells at 1 mM by Western blot; assay type: functional, cell-based
Ca-Ski [41] = assay: Cytotoxicity against human CaSki cells by trypan blue exclusion method; assay type: functional, cell-based; settings: TDE = time-dependent effect
HeLa [42] = assay: Decrease in CDK2 protein expression in human HeLa cells at 1 mM by Western blot; assay type: functional, cell-based
Ca-Ski [43] = assay: Increase in p53 protein level in human CaSki cells at 1 mM after 24 hrs by Western blot; assay type: functional, cell-based
HeLa [44] = assay: Decrease in CDK1 protein expression in human HeLa cells at 1 mM by Western blot; assay type: functional, cell-based
Ca-Ski [45] = assay: Induction of apoptosis in human CaSki cells at 1 mM after 48 hrs by TUNEL/DAPI double staining; assay type: functional
Ca-Ski [46] = assay: Increase in Bax protein expression in human CaSki cells at 1 mM by Western blot; assay type: functional, cell-based
Ca-Ski [47] = assay: Induction of apoptosis in human CaSki cells assessed as caspase 9 activation by fluorogenic substrate based assay after 48 hrs; assay type: functional, cell-based
HeLa [48] = assay: Induction of apoptosis in human HeLa cells assessed as caspase 3 activation by fluorogenic substrate based assay after 24 hrs; assay type: functional, cell-based
Ca-Ski [49] = assay: Cell cycle arrest in human CaSki cells assessed as accumulation at S phase after 24 hrs by flow cytometry; assay type: functional
Ca-Ski [50] = assay: Induction of apoptosis in human CaSki cells at 1 mM after 8 hrs by TUNEL/DAPI double staining; assay type: functional
HeLa [51] = assay: Cytotoxicity against human HeLa cells by trypan blue exclusion method; assay type: functional, cell-based
HeLa [52] = assay: Induction of cytosolic cytochrome c accumulation in human HeLa cells at 1 mM by SDS-PAGE; assay type: functional, cell-based; settings: TDE = time-dependent effect
HeLa [53] = assay: Induction of apoptosis in human HeLa cells assessed as chromatin condensation at 1 mM after 48 hrs by TUNEL/DAPI double staining; assay type: functional, cell-based
Ca-Ski [54] = assay: Decrease in cyclin B protein expression in human CaSki cells at 1 mM by Western blot; assay type: functional, cell-based
HeLa [55] = assay: Decrease in Bcl2 protein expression in human HeLa cells at 1 mM by Western blot; assay type: functional, cell-based
HeLa [56] = assay: Decrease in cyclin A protein expression in human HeLa cells at 1 mM by Western blot; assay type: functional, cell-based
Ca-Ski [57] = assay: Induction of cytosolic cytochrome c accumulation in human CaSki cells at 1 mM by SDS-PAGE; assay type: functional, cell-based; settings: TDE = time-dependent effect

## CCCCNC(=O)Cc1ccc(F)cc1
Ca-Ski [1]
  Activity: 27.7%
Ca-Ski [2]
  Activity: inactive
HeLa [3]
  Activity: Active
HeLa [4]
  Activity: Active
HeLa [5]
  Activity: Active
HeLa [6]
  Activity: 22.7%
HeLa [7]
  Activity: 42.6%
HeLa [8]
  Activity: 22.1%
Ca-Ski [9]
  Activity: 52.7%
HeLa [10]
  Activity: Active
Ca-Ski [11]
  Activity: Active
Ca-Ski [12]
  Activity: Active
HeLa [13]
  Activity: 1.9%
HeLa [14]
  Activity: 46.9%
HeLa [15]
  Activity: 31.2%
Ca-Ski [16]
  Activity: 19.9%
Ca-Ski [17]
  Activity: Active
Ca-Ski [18]
  Activity: 53.6%
HeLa [19]
  Activity: 28.9%
Ca-Ski [20]
  Activity: Active
HeLa [21]
  Activity: 30.6%
HeLa [22]
  Activity: 28.2%
Ca-Ski [23]
  Activity: 51.5%
HeLa [24]
  Activity: Active
Ca-Ski [25]
  Activity: 28.6%
Ca-Ski [26]
  Activity: Active
Ca-Ski [27]
  Activity: Active
HeLa [28]
  Activity: Active
Ca-Ski [29]
  Activity: Active
HeLa [30]
  Activity: 28.5%
HeLa [31]
  Activity: 46.7%
Ca-Ski [32]
  Activity: Active
Ca-Ski [33]
  Activity: 6%
HeLa [34]
  Activity: 23.6%
Ca-Ski [35]
  Activity: 18.6%
Ca-Ski [36]
  Activity: Active
Ca-Ski [37]
  Activity: 26.5%
HeLa [38]
  Activity: inactive
HeLa [39]
  Activity: Active
Ca-Ski [40]
  Activity: Active
Ca-Ski [41]
  Activity: tde
HeLa [42]
  Activity: Active
Ca-Ski [43]
  Activity: Active
HeLa [44]
  Activity: Active
Ca-Ski [45]
  Activity: 13.2%
Ca-Ski [46]
  Activity: Active
Ca-Ski [47]
  Activity: Active
HeLa [48]
  Activity: Active
Ca-Ski [49]
  Activity: 21%
Ca-Ski [50]
  Activity: 5.6%
HeLa [51]
  Activity: Dose-dependent effect
HeLa [52]
  Activity: tde
HeLa [53]
  Activity: Active
Ca-Ski [54]
  Activity: Active
HeLa [55]
  Activity: Active
HeLa [56]
  Activity: Active
Ca-Ski [57]
  Activity: tde
